Where two headings read alike, the source gives them in different places.
Assays:
[1] = system: Staphylococcus aureus X1.1; test: MIC, standard agar-dilution assay; format: cell-based
[2] = system: Staphylococcus aureus V41; test: MIC, standard agar-dilution assay; format: cell-based
[3] = system: Staphylococcus aureus X400; test: MIC, standard agar-dilution assay; format: cell-based; settings: Staphylococcus aureus X400, methicillin-resistant strain
[4] = system: Staphylococcus aureus S13E; format: cell-based; settings: agar dilution
[5] = system: Staphylococcus epidermidis EPI1; format: cell-based
[6] = system: Staphylococcus epidermidis EPI2; test: MIC, standard agar-dilution assay; format: cell-based
[7] = system: Streptococcus pyogenes C203; test: MIC, standard agar-dilution assay; format: cell-based
[8] = system: Streptococcus pneumoniae Park I; format: cell-based; settings: agar dilution
[9] = system: Streptococcus Group D X66; test: MIC, standard agar-dilution assay; format: cell-based
Streptococcus Group 9960 = test: MIC, standard agar-dilution assay; format: cell-based
Staphylococcus aureus = test: ED50 in experimentally infected mice; format: in vivo; settings: mice infected with Staphylococcus aureus; administered subcutaneously 1 and 4 hours postinfection
[10] = system: Haemophilus influenzae C.L.; test: MIC, standard agar-dilution assay; format: cell-based; settings: ampicillin-sensitive strain
[11] = system: Haemophilus influenzae 76; test: MIC, standard agar-dilution assay; format: cell-based; settings: Haemophilus influenzae 76, ampicillin-resistant strain
[12] = Staphylococcus aureus X1.1, agar dilution
[13] = Staphylococcus aureus V41, penicillin-resistant strain, agar dilution
[14] = Staphylococcus epidermidis EPI1, agar dilution
[15] = Streptococcus pyogenes C203, agar dilution
[16] = Streptococcus Group D X66, agar dilution
[17] = Streptococcus Group 9960, agar dilution

Substance	MIC [1, 12] [mg/L]	MIC [2, 13] [mg/L]	MIC [3] [mg/L]	MIC [4] [mg/L]	MIC [5, 14] [mg/L]	MIC [6] [mg/L]	MIC [7, 15] [mg/L]	MIC [8]	MIC [9, 16] [mg/L]	MIC (Streptococcus Group 9960; [17]) [mg/L]	ED50 (Staphylococcus aureus) [mg/kg × 2]	MIC [10]	MIC [11]	MIC [1] [mg/L]	MIC [2] [mg/L]	MIC [5] [mg/L]	MIC [7] [mg/L]	MIC [9] [mg/L]	MIC (Streptococcus Group 9960) [mg/L]
N-(L-phenylalanyl)A35512B [Example 2]	4	4	8	4	4	8	2	4 mg/L	4	4	5.87	–	–	–	–	–	–	–	–
N--(3,5-dichlorobenzoyl)A35512B [Example 11]	8	4	8	8	4	16	1	1 mg/L	4	2	11.8	-- (Compound not active at less than 128 mcg/ml)	-- (Compound not active at less than 128 mcg/ml)	–	–	–	–	–	–
N--(11-aminoundecanoyl)A35512B [Example 7]	4	4	8	4	8	16	2	4 mg/L	4	4	4.5	-- (Compound not active at less than 128 mcg/ml)	-- (Compound not active at less than 128 mcg/ml)	–	–	–	–	–	–
N--(11-aminoundecanoyl)A35512B pseudoaglycone [Example 15]	1	1	1	1	2	2	1	-- (Compound not active at less than 128 mcg/ml)	2	2	–	-- (Compound not active at less than 128 mcg/ml)	-- (Compound not active at less than 128 mcg/ml)	–	–	–	–	–	–
N--(D-phenylglycyl)A35512B [Example 5]	4	4	8	8	4	8	2	4 mg/L	8	4	14.4	–	–	–	–	–	–	–	–
N--(L-phenylalanyl)A47934 [Example 24]	0.06	0.06	0.25	0.06	0.125	0.25	0.25	0.06 mg/L	0.5	1	< 0.31	4 mg/L	4 mg/L	–	–	–	–	–	–
N--(nonanoyl)A35512B [Example 8]	2	2	2	2	2	4	2	4 mg/L	4	2	11.34	–	–	–	–	–	–	–	–
N--(nonanoyl)A35512B pseudoaglycone [Example 13]	2	2	2	2	2	4	2	4 mg/L	4	2	–	-- (Compound not active at less than 128 mcg/ml)	-- (Compound not active at less than 128 mcg/ml)	–	–	–	–	–	–
N--[(1-tetrazole)acetyl]A35512B [Example 10]	4	4	8	4	4	16	2	4 mg/L	8	8	5.7	-- (Compound not active at less than 128 mcg/ml)	-- (Compound not active at less than 128 mcg/ml)	–	–	–	–	–	–
N--[(3-sydnone)acetyl]A35512B [Example 12]	–	–	16	8	–	16	–	2 mg/L	–	–	10.97	–	–	4	8	8	2	8	8
N--[N--(hexanoyl)-L-tryptophyl]A35512B [Example 3]	4	8	8	4	8	8	1	1 mg/L	4	2	10.84	–	–	–	–	–	–	–	–
N--[N--(t-Boc)--11-aminoundecanoyl)A35512B [Example 6]	2	4	4	4	8	8	1	1 mg/L	2	4	–	–	–	–	–	–	–	–	–
N--[N--(t-Boc)--11-aminoundecanoyl]A35512B pseudoaglycone [Example 14]	8	8	8	8	4	16	4	4 mg/L	4	8	–	-- (Compound not active at less than 128 mcg/ml)	-- (Compound not active at less than 128 mcg/ml)	–	–	–	–	–	–
N--[N--(t-Boc)--D-phenylglycyl]A35512B [Example 4]	4	8	16	8	8	16	2	2 mg/L	8	4	–	-- (Compound not active at less than 128 mcg/ml)	-- (Compound not active at less than 128 mcg/ml)	–	–	–	–	–	–
N--[N--(t-Boc)--L-phenylalanyl)A41030A [Example 16]	0.25	0.25	0.5	0.25	0.25	0.5	0.5	0.5 mg/L	1	0.125	–	32 mg/L	32 mg/L	–	–	–	–	–	–
N--[N--(t-Boc)--L-phenylalanyl)A47934 [Example 23]	0.125	0.125	0.25	0.125	0.125	0.5	0.5	0.125 mg/L	1	2	–	8 mg/L	8 mg/L	–	–	–	–	–	–
N--[p-(dodecyloxy)phenylpropanoyl]A35512B [Example 9]	4	8	8	8	16	16	2	2 mg/L	4	4	70	–	–	–	–	–	–	–	–
N-[N-(tert-butoxycarbonyl)-L-phenylalanyl]-A35512B [Example 1]	8	8	16	8	8	32	1	2 mg/L	4	2	–	–	–	–	–	–	–	–	–

Reference: patent US4497802A, “N-Acyl glycopeptide derivatives” (Eli Lilly and Company, priority 1983, dated 1985)
